The record followed here is patent publication US20160075653A1, “NEMATICIDAL N-(PHENYLCYCLOALKYL)CARBOXAMIDES AND N-(PHENYLCYCLOALKYL)THIOCARBOXAMIDES” (BAYER CROPSCIENCE AKTIENGESELLSCHAFT, priority 2013, published 2016).

The series can be described thus: Measurement of log P values by HPLC on reversed phase columns (methods [a] pH 2.3, [b] pH 2.7, [c] pH 7.8). The class given is physicochemical. The following applies: for chromatographic logP: reversed phase HPLC columns, pH 2.7, HPLC on reversed phase columns, read-out: logP. The protocol:
Measurement of log P-Values:
Measurement of log P Values was Performed According EEC Directive 79/831 Annex V.A8 by HPLC (High Performance Liquid
Chromatography) on reversed phase columns with the following methods: ^[a] Measurement was done at pH 2.3 with 0.1% phosphoric acid and acetonitrile as eluent with a linear gradient from 10% acetonitrile to 95% acetonitrile. ^[b] measurement of LC-MS was done at pH 2.7 with 0.1% formic acid in water and with acetonitrile (contains 0.1% formic acid) as eluent with a linear gradient from 10% acetonitrile to 95% acetonitrile. ^[c] Measurement with LC-MS was done at pH 7.8 with 0.001 molar ammonium hydrogen carbonate solution in water as eluent with a linear gradient from 10% acetonitrile to 95% acetonitrile.
Calibration was done with linear alkan-2-ones (with 3 to 16 carbon atoms) with known log P-values (measurement of log P values using retention times with linear interpolation between successive alkanones). Lambda-max-values were determined using UV-spectra from 200 nm to 400 nm and the peak values of the chromatographic signals.

[1] abbreviates: HPLC reversed phase, method [b] (pH 2.7).
Setting [2] is: HPLC reversed phase, method [c] pH 7.8.
Setting [3] is: method [b], HPLC reversed phase, pH 2.7.
Setting [4] is: method [c], HPLC reversed phase, pH 7.8.
Setting [5] is: HPLC on reversed phase columns, method [b], pH 2.7.
The mark [6] stands for this setting: HPLC on reversed phase column, method [b], pH 2.7.

As to `Cc1nc(C)c(C(=O)NC2CCCC2c2ccc(Cl)cc2)s1` (stereo not shown) [Example 284], the logP under setting [1] was 3.11^[b]. Regarding `O=C(N[C@@H]1CCC[C@@H]1c1ccccc1F)c1ccccn1` (relative stereo) [Example 339], the logP is, setting by setting: under setting [1], 1.86^[b]; under setting [2], 1.95^[c];. Consider `O=C(NC1CC1c1ccc(Cl)cc1Cl)c1c(F)cccc1F` (stereo not shown) [Example 209], for which the logP runs as follows: under setting [3], 3.36^[b]; under setting [4], 3.29^[c];. For the molecule `O=C(NC1CC1c1ccc(Cl)cc1)c1ccccc1Br` (stereo not shown) [Example 272], the logP is, setting by setting: under setting [1], 2.82^[b]; under setting [2], 2.76^[c];. Regarding `Cc1nn(C)c(F)c1C(=O)NC1CC1c1ccc(Cl)cc1` (stereo not shown) [Example 12], under setting [5], the logP is 3.04^[b]. Regarding `O=C(N[C@@H]1CC[C@@H]1c1c(Cl)cccc1Cl)c1ccc(Cl)cc1` [Example 738], the chromatographic logP (method [b] (pH 2.7)) was found to be 3.36. As for `O=C(NC1CC1c1ccc(Cl)cc1)c1c(F)cccc1I` (stereo not shown) [Example 464], the logP was 3.02^[b] under setting [1] and 2.99^[c]; under setting [2]. On the same counts, the results for `Cc1nc(C(F)(F)F)c(C(=O)N[C@@H]2CCC[C@@H]2c2ccccc2F)s1` (relative stereo) [Example 343] are 3.18^[b] and 3.07^[c];. In the case of `O=C(N[C@@H]1CCC[C@@H]1c1ccc(F)c(F)c1)c1ccsc1I` (relative stereo) [Compound 56], the logP under setting [5] is 3.29^[b]. Consider `O=C(N[C@@H]1CC[C@H]1c1cccc(F)c1C(F)(F)F)c1ccccc1` (relative stereo) [Example 591], for which the logP under setting [1] was 3.35^[b].

`CC(C)Oc1ccc([C@H]2CCC[C@H]2NC(=O)c2ccccc2I)cc1` (relative stereo) [Example 333]: the logP is 3.92^[b] under setting [1] and 3.89^[c]; under setting [2]. As for `Cc1nc(C(F)(F)F)c(C(=O)N[C@@H]2CC[C@@H]2c2cc(F)ccc2C(F)(F)F)s1` (relative stereo) [Example 569], the logP under setting [1] is 3.40^[b]. Still for that read-out and setting: to `O=C(N[C@@H]1CC[C@@H]1c1ccc(Cl)cc1Cl)c1ncc(C(F)(F)F)cc1Cl` (relative stereo) [Example 259] belongs 4.23^[b].

On to `O=C(N[C@@H]1CC[C@@H]1c1c(Cl)cccc1Cl)c1ncc(C(F)(F)F)cc1Cl` [Example 744], for which, under “method [b] (pH 2.7)”, the chromatographic logP was 4.28.

For `Cc1nn(C)c(C)c1C(=O)N(C1CC1)C1CCCCC1c1ccccc1` (stereo not shown) [Example 146], the logP under setting [3] is 3.13^[b]. As for `O=C(NC1CCCC1c1ccc(C(F)(F)F)cc1)c1ccccc1I` (stereo not shown) [Example 363], the logP reads like this: under setting [1], 3.86^[b]; under setting [2], 3.79^[c];. For the molecule `CCc1nn(C)c(F)c1C(=O)N(C1CC1)C1CCCCC1c1ccccc1Cl` (stereo not shown) [Example 162], the logP under setting [3] was 4.39^[b]. Turning to `O=C(NC1CCCCC1c1ccccc1C(F)(F)F)c1ccccc1I` (stereo not shown) [Example 373], the logP under setting [1] was 4.22^[b]. Consider `O=C(NC1CC1c1ccccc1)c1ccccc1C(F)(F)F` (stereo not shown) [Example 40], for which the logP under setting [5] is 2.79^[b]. `Cc1cc(C(=O)N[C@@H]2CCC[C@@H]2c2ccc(F)c(F)c2)c(C)o1` (relative stereo) [Example 67]: the logP under setting [5] was 3.35^[b].

With `Cc1ccc(C(=O)N[C@@H]2CCC[C@@H]2c2ccc(F)c(F)c2)c(Cl)n1` (relative stereo) [Example 117], under setting [5], the logP is 2.86^[b]. Take `O=C(NC1CCC1c1ccc(Cl)cc1C(F)(F)F)c1ccccc1Br` (stereo not shown) [Example 723]: the logP under setting [5] was 3.80^[b]. With `O=C(N[C@@H]1CC[C@@H]1c1c(Cl)cccc1Cl)c1ccc(Cl)cc1Cl` [Example 741], the chromatographic logP (method [b] (pH 2.7)) was determined as 4.1. As for `CCc1ccccc1C(=O)N[C@@H]1CCC[C@@H]1c1ccc(F)c(F)c1` (relative stereo) [Example 114], the logP under setting [5] was 3.75^[b]. For `O=C(NC1CCCC1c1ccccc1Br)c1ccccc1C(F)(F)F` (stereo not shown) [Example 355], the logP under setting [1] is 3.71^[b].

Take `O=C(N[C@@H]1CC[C@H]1c1ccc(Cl)cc1C(F)(F)F)c1cccnc1` [Example 732]: the chromatographic logP (method [b] (pH 2.7)) was 2.74. `Cn1cc(C(=O)NC2CC2c2ccc(Cl)cc2)c(C(F)F)n1` (stereo not shown) [Example 151]: under setting [3], the logP was 2.30^[b]. Turning to `O=C(NC1CC1c1ccc(Cl)cc1)c1c(F)cccc1F` (stereo not shown) [Example 200], the logP runs as follows: under setting [3], 2.94^[b]; under setting [4], 2.89^[c];.

Consider `O=C(NC1CCCC1c1ccccc1C(F)(F)F)c1ccccc1C(F)(F)F` (stereo not shown) [Example 286], for which the logP under setting [1] was 3.79^[b].

In the case of `Fc1ccc(C2CCCC2NC(=S)C2=C(C(F)(F)F)OCCS2)cc1F` (stereo not shown) [Example 150], the logP under setting [3] was 4.21^[b]. With `O=C(N[C@@H]1CC[C@@H]1c1ccccc1Cl)c1ncc(C(F)(F)F)cc1Cl` (relative stereo) [Example 246], the logP under setting [1] is 3.77^[b].

Take `COc1nn(C)cc1C(=O)N[C@@H]1C[C@H]1c1ccccc1` (relative stereo) [Example 41]: the logP under setting [5] was 2.03^[b]. As to `O=C(NC1CC1c1ccc(Cl)cc1)c1ccsc1I` (stereo not shown) [Compound 460], the logP runs as follows: under setting [1], 2.94^[b]; under setting [2], 2.93^[c];. Regarding `O=C(N[C@@H]1CC[C@@H]1c1ccc(Br)cc1C(F)(F)F)c1ccccc1C(F)(F)F` (relative stereo) [Example 656], the logP was 4.02^[b] under setting [6] and 3.94^[c]; (HPLC on reversed phase column, method [c], pH 7.8).

With `O=C(N[C@@H]1CC[C@H]1c1cccc(F)c1C(F)(F)F)c1sccc1I` (relative stereo) [Example 627], the logP under setting [6] is 4.02^[b]. In the case of `Cc1nn(C)c(Cl)c1C(=O)NC1CC1c1ccc(Cl)cc1` (stereo not shown) [Example 14], the logP under setting [5] is 2.22^[b].

Take `Cn1cc(C(=O)NC2CCC2c2c(F)cccc2F)c(C(F)F)n1` (stereo not shown) [Example 486]: the logP under setting [1] was 2.42^[b]. Turning to `Cc1cc(C(=O)N[C@@H]2CCC[C@H]2c2ccc(F)c(F)c2)c(C)o1` (relative stereo) [Example 134], under setting [3], the logP is 3.46^[b]. In the case of `O=C(N[C@@H]1CC[C@@H]1c1ccc(Cl)cc1Cl)c1sccc1I` (relative stereo) [Example 671], the logP under setting [6] is 4.20^[b]. Take `O=C(NC1CC1c1ccccc1C(F)(F)F)c1cccnc1C(F)(F)F` (stereo not shown) [Example 500]: the logP under setting [1] was 2.79^[b].

Regarding `O=C(N[C@@H]1C[C@]1(F)c1ccc(Cl)cc1)c1sccc1I` [Example 749], under “method [b] (pH 2.7)”, the chromatographic logP worked out at 3.15. With `O=C(N[C@@H]1CC[C@@H]1c1ccccc1Cl)c1cccnc1Cl` (relative stereo) [Example 534], the logP under setting [1] was 2.40^[b]. Turning to `Cc1nc(C(F)(F)F)c(C(=O)N[C@@H]2CC[C@H]2c2ccc(Cl)cc2Cl)s1` (relative stereo) [Example 668], the logP under setting [6] was 3.91^[b]. In the case of `Cn1cc(C(=O)NC2CCCCCC2c2ccccc2C(F)(F)F)c(C(F)F)n1` (stereo not shown) [Example 421], under setting [1], the logP is 3.69^[b].

For the molecule `O=C(N[C@@H]1CC[C@H]1c1ccccc1Cl)c1ccccc1C(F)(F)F` (relative stereo) [Example 242], under setting [3], the logP is 3.45^[b].

As for `O=C(NC1CCCCC1c1c(F)cccc1F)c1c(F)cccc1F` (stereo not shown) [Example 395], the logP under setting [1] is 3.44^[b]. In the case of `O=C(N[C@@H]1CCC[C@@H]1c1ccc(F)c(F)c1)c1ccccc1Cc1ccccc1` (relative stereo) [Example 98], the logP under setting [5] was 4.26^[b]. `Cc1nc(C)c(C(=O)NC2CCCCC2c2ccccc2C(F)(F)F)s1` (stereo not shown) [Example 392]: the logP under setting [1] is 3.49^[b].

In the case of `Cc1nocc1C(=O)N[C@@H]1CCC[C@H]1c1ccc(F)c(F)c1` (relative stereo) [Example 60], under setting [5], the logP is 2.78^[b].

In the case of `O=C(NC1CC1c1ccc(Cl)cc1Cl)c1cccnc1Cl` (stereo not shown) [Example 211], the logP under setting [3] is 2.82^[b] and the logP under setting [4] was 2.77^[c];. Turning to `O=C(N[C@@H]1CC[C@@H]1c1ccc(Cl)cc1C(F)(F)F)c1ncc(C(F)(F)F)cc1Cl` (relative stereo) [Example 667], the logP under setting [6] is 4.33^[b].

On to `O=C(NC1CC1c1ccc(Cl)cc1)c1ccccc1Cl` (stereo not shown) [Example 275], for which the logP is, setting by setting: under setting [1], 2.77^[b]; under setting [2], 2.71^[c];. On the same counts, the results for `O=C(NC1CC1c1ccc(Cl)cc1)c1ccccc1I` (stereo not shown) [Compound 273] are 2.94^[b] and 2.88^[c];.

As for `COc1nn(C)cc1C(=O)N[C@@H]1CCC[C@@H]1c1ccc(F)c(F)c1` (relative stereo) [Example 76], the logP under setting [5] was 2.64^[b]. For the molecule `O=C(N[C@@H]1CC[C@@H]1c1ccc(Cl)cc1C(F)(F)F)c1ccccc1Cl` (relative stereo) [Example 666], the logP under setting [6] was 3.75^[b].

Turning to `Cc1nn(C)c(F)c1C(=O)N[C@@H]1CCC[C@@H]1c1ccc(F)c(F)c1` (relative stereo) [Example 77], the logP under setting [5] was 2.60^[b]. With `Cn1cc(C(=O)N(C2CC2)C2CCCCC2c2ccccc2Cl)c(C(F)F)n1` (stereo not shown) [Example 158], the logP under setting [3] was 4.03^[b]. For the molecule `O=C(N[C@@H]1CCC[C@@H]1c1ccccc1F)c1nccnc1C(F)(F)F` (relative stereo) [Example 341], the logP reads like this: under setting [1], 3.00^[b]; under setting [2], 2.94^[c];. `Cc1nc(C(F)(F)F)c(C(=O)N[C@@H]2CC[C@H]2c2ccccc2Cl)s1` (relative stereo) [Example 554]: the logP under setting [1] was 3.34^[b].
